From the supplement of paper PMC10307832

Columns and labels:
Test in all cases: relative viability (nuclei count vs DMSO), 5 days (fraction); higher = more cells survive
Adavosertib + Luminespib = compound: C=CCn1c(=O)c2cnc(Nc3ccc(N4CCN(C)CC4)cc3)nc2n1-c1cccc(C(C)(C)O)n1 [Adavosertib] + CCNC(=O)c1noc(-c2cc(C(C)C)c(O)cc2O)c1-c1ccc(CN2CCOCC2)cc1 [Luminespib] (partner 0.01 µM)
How it was run: (§1)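 A single step with final 0.05% Triton X-100, 1% formaldehyde and 1 ug/ml Hoechst fixed the cells and stained nuclei 5 days after treatment. Lung cancer cell lines in 1536-well plates had been treated by pin tool the day after seeding with one drug alone or a fixed anchor-drug dose plus five library-drug doses (not always all listed) in √10 steps, and nuclei were counted on 4× images. Relative viability is the ratio of nuclei in treated wells to nuclei in vehicle wells, taken as the median of duplicate plates.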

Adavosertib + Bortezomib = compound: C=CCn1c(=O)c2cnc(Nc3ccc(N4CCN(C)CC4)cc3)nc2n1-c1cccc(C(C)(C)O)n1 [Adavosertib] + CC(C)C[C@H](NC(=O)[C@H](Cc1ccccc1)NC(=O)c1cnccn1)B(O)O [Bortezomib] (partner 0.002 µM)
How it was run: as §1

Nelarabine + OSI-027 = compound: COc1nc(N)nc2c1ncn2[C@@H]1O[C@H](CO)[C@@H](O)[C@@H]1O [Nelarabine] + COc1cccc2cc(-c3nc([C@H]4CC[C@H](C(=O)O)CC4)n4ncnc(N)c34)[nH]c12 [OSI-027] (partner 0.5 µM)
How it was run: as §1

Adavosertib + Dasatinib = compound: C=CCn1c(=O)c2cnc(Nc3ccc(N4CCN(C)CC4)cc3)nc2n1-c1cccc(C(C)(C)O)n1 [Adavosertib] + Cc1nc(Nc2ncc(C(=O)Nc3c(C)cccc3Cl)s2)cc(N2CCN(CCO)CC2)n1 [Dasatinib] (partner 0.075 µM)
How it was run: as §1

EMC-BAC-2
relative viability (Adavosertib + Luminespib; first compound 0.01 µM): 1.14 | relative viability (Adavosertib + Luminespib; first compound 0.03162 µM): 1.25 | relative viability (Adavosertib + Luminespib; first compound 0.1 µM): 1.18 | relative viability (Adavosertib + Luminespib; first compound 0.3162 µM): 1.11 | relative viability (Adavosertib + Bortezomib; first compound 0.01 µM): 0.987 | relative viability (Adavosertib + Bortezomib; first compound 0.03162 µM): 0.989 | relative viability (Adavosertib + Bortezomib; first compound 0.1 µM): 1.06 | relative viability (Adavosertib + Bortezomib; first compound 0.3162 µM): 1.04 | relative viability (Nelarabine + OSI-027; first compound 0.01 µM): 0.393 | relative viability (Nelarabine + OSI-027; first compound 0.03162 µM): 0.41 | relative viability (Nelarabine + OSI-027; first compound 0.1 µM): 0.398 | relative viability (Nelarabine + OSI-027; first compound 0.3162 µM): 0.36 | relative viability (Nelarabine + OSI-027; first compound 1 µM): 0.377 | relative viability (Adavosertib + Dasatinib; first compound 0.01 µM): 0.333 | relative viability (Adavosertib + Dasatinib; first compound 0.03162 µM): 0.339 | relative viability (Adavosertib + Dasatinib; first compound 0.1 µM): 0.324 | relative viability (Adavosertib + Dasatinib; first compound 0.3162 µM): 0.261
